From publication PMC7663272, “Discovery of Tricyclic Pyranochromenone as Novel Bruton’s Tyrosine Kinase Inhibitors with In Vivo Antirheumatic Activity” (International Journal of Molecular Sciences, 2020)

Assays:
Type in all cases: biochemical
[1] = biological target: T1, JAK3 (Homo sapiens, UniProt P52333); assay: HotSpot kinase enzymatic assay, JAK3
T1 construct: purchased Reaction Biology Corporation
T1 sequence (P52333 1-1124): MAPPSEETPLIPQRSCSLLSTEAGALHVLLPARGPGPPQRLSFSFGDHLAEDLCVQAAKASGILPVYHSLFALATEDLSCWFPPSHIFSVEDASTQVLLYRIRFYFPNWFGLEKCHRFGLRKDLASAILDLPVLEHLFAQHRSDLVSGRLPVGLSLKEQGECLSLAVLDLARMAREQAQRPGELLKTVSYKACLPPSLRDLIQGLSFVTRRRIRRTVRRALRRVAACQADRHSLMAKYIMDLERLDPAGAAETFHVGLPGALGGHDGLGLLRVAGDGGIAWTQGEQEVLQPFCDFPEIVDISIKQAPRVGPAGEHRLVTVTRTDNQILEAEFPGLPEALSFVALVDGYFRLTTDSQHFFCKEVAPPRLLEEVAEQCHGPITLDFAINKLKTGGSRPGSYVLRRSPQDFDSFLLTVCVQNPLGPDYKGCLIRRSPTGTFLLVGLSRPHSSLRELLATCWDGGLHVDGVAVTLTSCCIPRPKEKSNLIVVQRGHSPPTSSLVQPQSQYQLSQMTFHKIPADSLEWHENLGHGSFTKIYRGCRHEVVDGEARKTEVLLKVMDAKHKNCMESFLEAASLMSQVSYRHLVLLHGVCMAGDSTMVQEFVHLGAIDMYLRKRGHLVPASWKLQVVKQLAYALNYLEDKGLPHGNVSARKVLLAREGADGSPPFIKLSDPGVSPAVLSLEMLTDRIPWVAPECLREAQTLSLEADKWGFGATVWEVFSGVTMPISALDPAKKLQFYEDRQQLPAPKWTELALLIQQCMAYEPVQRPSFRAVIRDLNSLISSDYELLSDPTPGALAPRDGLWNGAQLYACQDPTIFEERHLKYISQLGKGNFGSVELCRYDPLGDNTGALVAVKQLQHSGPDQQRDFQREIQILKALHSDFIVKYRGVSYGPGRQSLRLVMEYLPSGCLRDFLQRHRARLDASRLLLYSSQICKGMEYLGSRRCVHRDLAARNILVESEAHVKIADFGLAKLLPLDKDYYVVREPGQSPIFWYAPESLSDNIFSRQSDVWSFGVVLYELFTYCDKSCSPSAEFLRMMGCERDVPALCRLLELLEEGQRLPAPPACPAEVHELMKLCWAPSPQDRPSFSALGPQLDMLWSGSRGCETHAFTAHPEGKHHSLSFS
Procedure: (§1) Therefore, efforts have focused on developing new compounds with good selectivity profiles. […] Compound 8 was selective against BTK. The biochemical activities of compound 8 differed among TEC family kinases. […] The inhibitory potential of compound 8 differed between members of the EGFR family. […] The inhibitory activity of compound 8 against JAK3 was also low.
(§2) Kinase enzymatic assays for BTK, BMX, TXK, TEC, ITK, EGFR, ERBB2, ERBB4, and JAK3 were performed at Reaction Biology Corporation (www.reactionbiology.com, Malvern, PA, USA) using the HotSpot assay platform. Briefly, specific kinase/substrate pairs and the required cofactors were prepared in a reaction buffer comprising 20 mM HEPES (pH 7.5), 10 mM MgCl2, 1 mM EGTA, 0.02% Brij35, 0.02 mg/mL BSA, 0.1 mM Na3VO4, 2 mM DTT, and 1% DMSO. The compounds were added to the reaction mixture and allowed to incubate. Approximately 20 min later, a mixture of ATP (Sigma-Aldrich, St. Louis, MO, USA) and ^33P ATP (PerkinElmer, Waltham, MA, USA) was added to the reaction mixture at a final concentration of 10 μM. The reactions were performed at room temperature for 120 min; subsequently, the reactions were spotted onto P81 ion exchange filter papers (Whatman Inc., Maidstone, UK). Any unbound phosphate was removed by thoroughly washing the filter papers with 0.75% phosphoric acid. […]

[2] = biological target: T2, BTK-C481S (Homo sapiens, UniProt Q06187, C481S); assay: HotSpot kinase enzymatic assay, mutant BTK; details: vs negative control (DMSO), mean of two separate experiments
T2 construct: purchased Reaction Biology Corporation
T2 sequence (Q06187 whole entry C481S): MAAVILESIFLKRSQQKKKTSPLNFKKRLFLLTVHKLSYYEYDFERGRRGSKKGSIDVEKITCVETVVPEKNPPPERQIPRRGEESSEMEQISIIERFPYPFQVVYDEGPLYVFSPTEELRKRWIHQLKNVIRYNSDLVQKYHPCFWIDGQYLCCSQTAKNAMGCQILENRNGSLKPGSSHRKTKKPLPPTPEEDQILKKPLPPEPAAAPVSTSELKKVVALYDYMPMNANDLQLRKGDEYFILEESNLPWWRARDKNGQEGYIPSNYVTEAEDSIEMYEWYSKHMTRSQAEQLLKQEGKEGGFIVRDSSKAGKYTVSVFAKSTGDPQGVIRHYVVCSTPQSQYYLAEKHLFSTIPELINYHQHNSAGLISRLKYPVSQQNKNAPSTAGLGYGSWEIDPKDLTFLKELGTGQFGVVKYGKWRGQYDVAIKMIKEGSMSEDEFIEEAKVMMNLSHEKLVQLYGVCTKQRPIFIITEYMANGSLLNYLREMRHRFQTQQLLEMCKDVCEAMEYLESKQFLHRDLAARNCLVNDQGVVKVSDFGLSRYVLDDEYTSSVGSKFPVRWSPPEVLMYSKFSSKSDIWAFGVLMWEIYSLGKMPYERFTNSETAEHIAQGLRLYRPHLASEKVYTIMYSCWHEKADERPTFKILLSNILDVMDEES
Description: To confirm the role of the electrophilic warhead groups, the acryloyl group of compound 8 was replaced with methylacryloyl (11) and propionyl (12) groups, which are less electrophilic or lack an electrophilic feature. […] The significant difference in the inhibitory activity of compounds 8 and 12 could explain the critical role of the acryloyl moiety in potentiating the BTK inhibitory activity of compound 8. […] It was also confirmed by comparison of the inhibitory activity of the representative compounds (8–10) with electrophilic warheads against wild-type BTK (BTK-wt) and mutant BTK (BTK-C481S).
Kinase enzymatic assays for BTK, BMX, TXK, TEC, ITK, EGFR, ERBB2, ERBB4, and JAK3 were performed at Reaction Biology Corporation (www.reactionbiology.com, Malvern, PA, USA) using the HotSpot assay platform. Briefly, specific kinase/substrate pairs and the required cofactors were prepared in a reaction buffer comprising 20 mM HEPES (pH 7.5), 10 mM MgCl2, 1 mM EGTA, 0.02% Brij35, 0.02 mg/mL BSA, 0.1 mM Na3VO4, 2 mM DTT, and 1% DMSO. The compounds were added to the reaction mixture and allowed to incubate. Approximately 20 min later, a mixture of ATP (Sigma-Aldrich, St. Louis, MO, USA) and ^33P ATP (PerkinElmer, Waltham, MA, USA) was added to the reaction mixture at a final concentration of 10 μM. The reactions were performed at room temperature for 120 min; subsequently, the reactions were spotted onto P81 ion exchange filter papers (Whatman Inc., Maidstone, UK). Any unbound phosphate was removed by thoroughly washing the filter papers with 0.75% phosphoric acid. […] GraphPad Prism software was used to obtain the IC50 values and perform curve fitting.

[3] = biological target: T3, ITK (Homo sapiens, UniProt Q08881); assay: HotSpot kinase enzymatic assay, ITK
T3 construct: purchased Reaction Biology Corporation
T3 sequence (Q08881 1-620): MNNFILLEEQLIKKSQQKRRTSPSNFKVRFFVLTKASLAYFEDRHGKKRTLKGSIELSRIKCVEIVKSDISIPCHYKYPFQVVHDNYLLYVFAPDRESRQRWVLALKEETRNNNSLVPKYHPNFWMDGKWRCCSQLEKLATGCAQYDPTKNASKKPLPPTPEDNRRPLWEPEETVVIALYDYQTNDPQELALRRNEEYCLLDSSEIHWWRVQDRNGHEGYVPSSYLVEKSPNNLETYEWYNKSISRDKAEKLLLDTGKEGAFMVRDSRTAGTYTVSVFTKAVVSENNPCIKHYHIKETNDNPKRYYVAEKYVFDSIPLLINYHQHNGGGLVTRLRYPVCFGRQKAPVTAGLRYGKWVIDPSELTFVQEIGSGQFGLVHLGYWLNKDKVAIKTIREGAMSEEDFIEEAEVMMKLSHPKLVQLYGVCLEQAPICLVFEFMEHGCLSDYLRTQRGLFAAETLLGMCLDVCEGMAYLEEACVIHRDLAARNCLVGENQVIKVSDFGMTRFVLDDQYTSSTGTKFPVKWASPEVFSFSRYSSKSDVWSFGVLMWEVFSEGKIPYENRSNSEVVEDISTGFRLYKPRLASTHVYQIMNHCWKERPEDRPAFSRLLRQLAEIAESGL
Procedure: as §1, §2

C=CC(=O)O[C@H]1Cc2cc3ccc(=O)oc3cc2OC1(C)C [Compound 8, (7S)-(+)-Acrylic acid, 8,8-dimethyl-2-oxo-6,7-dihydro-2H,8H-pyrano [3,2-g]chromen-7-yl ester]
inhibitory activity against JAK3 (in words) [1]: low | inhibition at 10 µM ([1]; 10 µM, mean of two experiments): 13.2% | inhibition at 10 µM [2]: 9.7% | inhibitory activity against ITK (in words) [3]: weak inhibitory activity | inhibition at 10 µM ([3]; 10 µM, mean of two experiments): 17.3%
